Laboratory results published in patent US9073940B2, “Tricyclic pyrazol amine derivatives” (MERCK SERONO SA, priority 2009, dated 2015).
pIC50: −log10 of the molar value.

These compounds were tested on 4 PI3K isoforms (Human recombinant GST-PI3K) (assay: PI3K scintillation proximity assay, best IC50 obtained with the four isoforms (alpha, beta, delta, gamma)). Details: best IC50 obtained with the four isoforms of PI3K; read-out: Best potency measured on the 4 PI3K isoforms.
Type: biochemical

| Compound | pIC50 |
| --- | --- |
| NCCCC1c2c(C(=O)N3CCOCC3)nn(-c3ccccc3)c2-c2ccccc2S1(=O)=O (stereo not drawn) [Example 140, 3-[3-(Morpholin-4-ylcarbonyl)-5,5-dioxido-1-phenyl-1,4-dihydrothiochromeno[4,3-c]pyrazol-4-yl]propan-1-amine] | 5.34 |
| O=C(c1nn(-c2ccccc2Cl)c2c1CS(=O)(=O)c1ccccc1-2)N1CCOCC1 [Example 22, 1-(2-chlorophenyl)-3-(morpholin-4-ylcarbonyl)-1,4-dihydrothiochromeno[4,3-c]pyrazole 5,5-dioxide] | 5.40 |
| CC(C)(C)OC(=O)N1CCCC(n2nc(C(=O)N3CCOCC3)c3c2-c2ccccc2S(=O)(=O)C3)CC1 (stereo not drawn) [Example 257] | 6.08 |
| Cc1ccc2c(c1)S(=O)(=O)Cc1c(C(=O)N3CCOCC3)nn(-c3ccccc3)c1-2 [Example 139, 7-Methyl-3-(morpholin-4-ylcarbonyl)-1-phenyl-1,4-dihydrothiochromeno[4,3-c]pyrazole 5,5-dioxide] | 5.73 |
| O=C(c1nn(C2CCCN(CCc3ccccc3)C2)c2c1CS(=O)(=O)c1ccccc1-2)N1CCOCC1 (stereo not drawn) [Example 219, 3-(Morpholin-4-ylcarbonyl)-1-[1-(2-phenylethyl)piperidin-3-yl]-1,4-dihydrothiochromeno[4,3-c]pyrazole 5,5-dioxide] | 6.15 |
| COc1cccc2c1S(=O)(=O)Cc1c(C(=O)N3CCOCC3)nn(C)c1-2 [Example 2, 6-methoxy-1-methyl-3-(morpholin-4-ylcarbonyl)-1,4-dihydrothiochromeno[4,3-c]pyrazole 5,5-dioxide] | 5.76 |
| Cc1cccc(-n2nc(C(=O)N3CCOCC3)c3c2-c2ccccc2S(=O)(=O)C3)c1 [Example 6, 1-(3-methylphenyl)-3-(morpholin-4-ylcarbonyl)-1,4-dihydrothiochromeno[4,3-c]pyrazole 5,5-dioxide] | 6.03 |
| O=C(c1nn(C2CCCN(CCN3CC(F)(F)C3)C2)c2c1CS(=O)(=O)c1c(F)cccc1-2)N1CCOCC1 (stereo not drawn) [Example 414, 1-{1-[2-(3,3-Difluoroazetidin-1-yl)ethyl]piperidin-3-yl}-6-fluoro-3-(morpholin-4-ylcarbonyl)-1,4-dihydrothiochromeno[4,3-c]pyrazole 5,5-dioxide] | 7.42 |
| CN1CCN(C(=O)c2ccc3c(c2)-c2c(c(C(=O)N4CCOCC4)nn2-c2ccccc2)CS3(=O)=O)CC1 [Example 114, 8-[(4-Methylpiperazin-1-yl)carbonyl]-3-(morpholin-4-ylcarbonyl)-1-phenyl-1,4-dihydrothiochromeno[4,3-c]pyrazole 5,5-dioxide] | 5.37 |
| O=C(c1nn(-c2ccccc2)c2c1CS(=O)(=O)c1cc(C(F)(F)F)ccc1-2)N1CCOCC1 [Example 158, 3-(Morpholin-4-ylcarbonyl)-1-phenyl-7-(trifluoromethyl)-1,4-dihydrothiochromeno[4,3-c]pyrazole 5,5-dioxide] | 5.51 |
| O=C(c1nn([C@H]2CCCN(CCN3CCC(F)CC3)C2)c2c1CS(=O)(=O)c1ccccc1-2)N1CCOCC1 (single isomer, unassigned) [Example 363, 1-{1-[2-(4-fluoropiperidin-1-yl)ethyl]piperidin-3-yl}-3-(morpholin-4-ylcarbonyl)-1,4-dihydrothiochromeno[4,3-c]pyrazole 5,5-dioxide] | 7.60 |
| O=C(c1nn(C2CCCN(CCN3CC[C@@H](F)C3)C2)c2c1CS(=O)(=O)c1ccccc1-2)N1CCOCC1 (single isomer, unassigned) [Example 283] | 7.47 |
| O=C(c1nn(C2CCCN(CCC(F)(F)F)C2)c2c1CS(=O)(=O)c1ccccc1-2)N1CCOCC1 (stereo not drawn) [Example 222, 3-(Morpholin-4-ylcarbonyl)-1-[1-(3,3,3-trifluoropropyl)piperidin-3-yl]-1,4-dihydrothiochromeno[4,3-c]pyrazole 5,5-dioxide] | 6.83 |
| O=C(c1nn(-c2ccccc2)c2c1NS(=O)(=O)c1ccccc1-2)N1CCOCC1 [Example 489, 3-(Morpholin-4-ylcarbonyl)-1-phenyl-1,4-dihydropyrazolo[4,3-c][1,2]benzothiazine 5,5-dioxide] | 5.26 |
| 3-(Morpholin-4-ylcarbonyl)-1-phenyl-4H- imidazo[5,1-c][1,4]benzothiazine 5,5-dioxide [Example 486] | 5.56 |
| CN(C)CCN1CCCC(n2nc(C(=O)N3CCOCC3)c3c2-c2ccccc2S(=O)(=O)C3)C1 (stereo not drawn) [Example 253, N,N-Dimethyl-2-{3-[3-(morpholin-4-ylcarbonyl)-5,5-dioxidothiochromeno[4,3-c]pyrazol-1 (4H)-yl]piperidin-1-yl}ethanamine] | 7.14 |
| COCCNCCN1CCC[C@H](n2nc(C(=O)N3CCOCC3)c3c2-c2ccccc2S(=O)(=O)C3)C1 (stereo in doubt) [Example 445, 2-methoxy-N-(2-{3-[3-(morpholin-4-ylcarbonyl)-5,5-dioxidothiochromeno[4,3-c]pyrazol-1(4H)-yl]piperidin-1-yl}ethyl)ethanamine] | 7.47 |
| COc1ccc2c(c1)S(=O)(=O)Cc1c(C(=O)N3CCOCC3)nn([C@@H]3CCCN(CCC4CCOCC4)C3)c1-2 (single isomer, unassigned) [Example 373] | 4.99 |
| O=C(c1nn(-c2ccccc2)c2c1CS(=O)(=O)c1sccc1-2)N1CCOCC1 [Example 192, 3-(Morpholin-4-ylcarbonyl)-1-phenyl-1,4-dihydrothieno[3′,2′:5,6]thiopyrano[4,3-c]pyrazole 5,5-dioxide] | 5.77 |
| O=C(c1nn(-c2ccccc2)c2c1CS(=O)(=O)c1c(Br)cccc1-2)N1CCOCC1 [Example 18] | 6.31 |
| O=C(c1nn(C2CCN(CCn3cccn3)C2)c2c1CS(=O)(=O)c1ccccc1-2)N1CCOCC1 (stereo not drawn) [Example 286, 3-(Morpholin-4-ylcarbonyl)-1-{1-[2-(1H-pyrazol-1-yl)ethyl]pyrrolidin-3-yl}-1,4-dihydrothiochromeno[4,3-c]pyrazole 5,5-dioxide] | 6.59 |

Now from value to compound:

| pIC50 | Compound |
| --- | --- |
| 6.60 | O=C(c1nn(C2CCCN(C3CCOCC3)C2)c2c1CS(=O)(=O)c1ccccc1-2)N1CCOCC1 (stereo not drawn) [Example 293, 3-(Morpholin-4-ylcarbonyl)-1-[1-(tetrahydro-2H-pyran-4-yl)piperidin-3-yl]-1,4-dihydrothiochromeno[4,3-c]pyrazole 5,5-dioxide] |
| 6.08 | O=C(c1nn(-c2cccc(-c3ccoc3)c2)c2c1CS(=O)(=O)c1ccccc1-2)N1CCOCC1 [Example 197, 1-[3-(3-Furyl)phenyl]-3-(morpholin-4-ylcarbonyl)-1,4-dihydrothiochromeno[4,3-c]pyrazole 5,5-dioxide] |
| 6.37 | COc1ccc2c(c1)S(=O)(=O)Cc1c(C(=O)N3CCOCC3)nn(C)c1-2 [Example 4, 7-methoxy-1-methyl-3-(morpholin-4-ylcarbonyl)-1,4-dihydrothiochromeno[4,3-c]pyrazole 5,5-dioxide] |
| 6.06 | O=C(NC1CCCCC1)N1CCC(n2nc(C(=O)N3CCOCC3)c3c2-c2ccccc2S(=O)(=O)C3)C1 (stereo not drawn) [Example 276] |
| 7.89 | O=C(c1nn([C@H]2CCCN(C3CCOCC3)C2)c2c1CS(=O)(=O)c1c(F)cccc1-2)N1CCOCC1 (stereo in doubt) [Example 427, 6-fluoro-3-(morpholin-4-ylcarbonyl)-1-[1-(tetrahydro-2H-pyran-4-yl)piperidin-3-yl]-1,4-dihydrothiochromeno[4,3-c]pyrazole 5,5-dioxide] |
| 6.31 | O=C(c1nn(-c2cccc(Cn3cccn3)c2)c2c1CS(=O)(=O)c1ccccc1-2)N1CCOCC1 [Example 292, 3-(Morpholin-4-ylcarbonyl)-1-[3-(1H-pyrazol-1-ylmethyl)phenyl]-1,4-dihydrothiochromeno[4,3-c]pyrazole 5,5-dioxide] |
| 5.95 | O=C(c1nn(-c2ccc(Br)cc2)c2c1CS(=O)(=O)c1ccccc1-2)N1CCOCC1 [Example 27, 1-(4-bromophenyl)-3-(morpholin-4-ylcarbonyl)-1,4-dihydrothiochromeno[4,3-c]pyrazole 5,5-dioxide] |
| 5.37 | O=C(c1nn(-c2cccc(-c3nccs3)c2)c2c1CS(=O)(=O)c1ccccc1-2)N1CCOCC1 [Example 189, 3-(Morpholin-4-ylcarbonyl)-1-[3-(1,3-thiazol-2-yl)phenyl]-1,4-dihydrothiochromeno[4,3-c]pyrazole 5,5-dioxide] |
| 5.22 | CN1CCCC(Cn2nc(C(=O)N3CCOCC3)c3c2-c2ccccc2S(=O)(=O)C3)C1 (stereo not drawn) [Example 70, 1-[(1-Methylpiperidin-3-yl)methyl]-3-(morpholin-4-ylcarbonyl)-1,4-dihydrothiochromeno[4,3-c]pyrazole 5,5-dioxide] |
| 5.82 | CN(C)CCn1nc(C(=O)N2CCOCC2)c2c1-c1ccccc1S(=O)(=O)C2 [Example 42, N,N-dimethyl-2-[3-(morpholin-4-ylcarbonyl)-5,5-dioxidothiochromeno[4,3-c]pyrazol-1(4H)-yl]ethanamine] |
| 7.52 | O=C(c1nn([C@H]2CCCN(CCN3CCOCC3)C2)c2c1CS(=O)(=O)c1c(Cl)cccc1-2)N1CCOCC1 (single isomer, unassigned) [Example 386, 6-chloro-3-(morpholin-4-ylcarbonyl)-1-[1-(2-morpholin-4-ylethyl)piperidin-3-yl]-1,4-dihydrothiochromeno[4,3-c]pyrazole 5,5-dioxide] |
| 6.03 | COCCCN1CCC(n2nc(C(=O)N3CCOCC3)c3c2-c2ccccc2S(=O)(=O)C3)C1 (stereo not drawn) [Example 256, 1-[1-(3-Methoxypropyl)pyrrolidin-3-yl]-3-(morpholin-4-ylcarbonyl)-1,4-dihydrothiochromeno[4,3-c]pyrazole 5,5-dioxide] |
| 5.51 | CN(C)CCCn1nc(C(=O)N2CCOCC2)c2c1-c1ccccc1S(=O)(=O)C2 [Example 69, N,N-Dimethyl-3-[3-(morpholin-4-ylcarbonyl)-5,5-dioxidothiochromeno[4,3-c]pyrazol-1(4H)-yl]propan-1-amine] |
| 5.45 | CNc1cccc2c1S(=O)(=O)Cc1c(C(=O)N3CCOCC3)nn(-c3ccccc3)c1-2 [Example 212, N-Methyl-3-(morpholin-4-ylcarbonyl)-1-phenyl-1,4-dihydrothiochromeno[4,3-c]pyrazol-6-amine 5,5-dioxide] |
| 5.97 | Cc1ccccc1-c1cccc(-n2nc(C(=O)N3CCOCC3)c3c2-c2ccccc2S(=O)(=O)C3)c1 [Example 160, 1-(2′-Methylbiphenyl-3-yl)-3-(morpholin-4-ylcarbonyl)-1,4-dihydrothiochromeno[4,3-c]pyrazole 5,5-dioxide] |
